Reference: patent US9714231B2, “Pyrrolidine GPR40 modulators” (BRISTOL-MYERS SQUIBB COMPANY, priority 2012, dated 2017)
Structures can show the parent of a compound that is named as a salt.

Molecular target: human GPR40 (Homo sapiens, UniProt O14842)
Assay: FDSS-based intracellular calcium assay (Human GRP40 in vitro assay)
Format: cell-based
Set-up: 3xFLAG; expressed in transfected cells
Settings: cells expressing GPR40, intracellular Ca2+ response, FDSS reader; read-out: hGPR40 EC50
Procedure: To conduct the fluorescent imaging plate reader (FLIPR)-based calcium flux assay to measure intracellular Ca^2+ response, cells expressing GPR40 are plated on 384 well plates (BD BIOCOAT® #356697) at a density of 20,000 cells/20 μL medium per well in phenol red and serum-free DMEM (GIBCO® #21063-029) and incubated overnight. Using BD kit #s 80500-310 or -301, the cells are incubated with 20 μL per well of Hank's buffered salt solution with 1.7 mM probenecid and Fluo-3 at 37° C. for 30 min. Compounds are dissolved in DMSO and diluted to desired concentrations with assay buffer and added to the cells as 3× solution (20 μL per well). Run fluorescence/luminescence reader FDSS (Hamamatsu) to read intracellular Ca^2+ response.

Sequence of human GPR40 (O14842 whole entry): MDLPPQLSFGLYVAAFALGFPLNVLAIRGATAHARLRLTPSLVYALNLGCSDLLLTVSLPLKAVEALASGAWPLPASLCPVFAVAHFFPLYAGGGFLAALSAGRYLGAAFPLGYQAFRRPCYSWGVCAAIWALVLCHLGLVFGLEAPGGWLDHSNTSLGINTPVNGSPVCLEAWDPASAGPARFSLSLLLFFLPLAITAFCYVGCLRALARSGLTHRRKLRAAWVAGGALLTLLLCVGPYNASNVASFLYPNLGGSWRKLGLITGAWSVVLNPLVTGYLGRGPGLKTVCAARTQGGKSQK

EC50 [µM] | Structure (SMILES)
0.19 | COc1ccc(F)c(N2CCC(Oc3ccc(N4C[C@H](Oc5ccccc5)C[C@@H]4CC(=O)O)cc3)CC2)c1 [Example 6, 2-((2R,4R)-1-(4-((1-(2-Fluoro-5-methoxyphenyl)piperidin-4-yl)oxy)phenyl)-4-phenoxypyrrolidin-2-yl)acetic acid, HCl]
0.32 | COc1ccc(F)c(N2CCC(Oc3ccc(N4C[C@H](Cc5ccccc5)C[C@@H]4CC(=O)O)cc3)CC2)c1 [Example 7, 2-((2R,4R)-4-Benzyl-1-(4-((1-(2-fluoro-5-methoxyphenyl)piperidin-4-yl)oxy)phenyl)pyrrolidin-2-yl)acetic acid, HCl]
0.42 | COc1ccc(F)c(N2CCC(Oc3ccc(N4C[C@H](Cc5ccccc5)C[C@H]4CC(=O)O)cc3)CC2)c1 [Example 8, 2-((2S,4R)-4-Benzyl-1-(4-((1-(2-fluoro-5-methoxyphenyl)piperidin-4-yl)oxy)phenyl)pyrrolidin-2-yl)acetic acid, HCl]
0.29 | COc1ccc(F)c(N2CCC(N(C)c3ccc(N4C[C@H](C(F)(F)F)C[C@@H]4CC(=O)O)cc3)CC2)c1 [Example 9, 2-((2R,4R)-1-(4-((1-(2-Fluoro-5-methoxyphenyl)piperidin-4-yl)(methyl)amino)phenyl)-4-(trifluoromethyl)pyrrolidin-2-yl)acetic acid, TFA]
0.94 | COc1ccc(F)c(N2CC[C@H](COc3ccc(N4C[C@H](C(F)(F)F)C[C@@H]4CC(=O)O)cc3)C2)c1 [Example 10, 2-((2R,4R)-1-(4-(((S)-1-(2-Fluoro-5-methoxyphenyl)pyrrolidin-3-yl)methoxy)phenyl)-4-(trifluoromethyl)pyrrolidin-2-yl)acetic acid, HCl]
0.63 | COc1ccc(F)c(N2CC[C@@H](COc3ccc(N4C[C@H](C(F)(F)F)C[C@@H]4CC(=O)O)cc3)C2)c1 [Example 11, 2-((2R,4R)-1-(4-(((R)-1-(2-Fluoro-5-methoxyphenyl)pyrrolidin-3-yl)methoxy)phenyl)-4-(trifluoromethyl)pyrrolidin-2-yl)acetic acid, HCl]
0.29 | COc1ccc(F)c(N2CCC(Oc3ccc(N4C[C@H](OC)C[C@@H]4CC(=O)O)cc3F)CC2)c1 [Example 15, 2-((2R,4R)-1-(3-Fluoro-4-((1-(2-fluoro-5-methoxyphenyl)piperidin-4-yl)oxy)phenyl)-4-methoxypyrrolidin-2-yl)acetic acid, HCl]
0.68 | COc1cccc(N2CCC(Oc3ccc(N4C[C@H](C(F)(F)F)C[C@@H]4CC(=O)O)cc3)CC2)c1 [Example 19, 2-((2R,4R)-1-(4-((1-(3-Methoxyphenyl)piperidin-4-yl)oxy)phenyl)-4-(trifluoromethyl)pyrrolidin-2-yl)acetic acid, HCl]
0.75 | O=C(O)C[C@H]1C[C@@H](C(F)(F)F)CN1c1ccc(OC2CCN(c3ccccc3F)CC2)cc1 [Example 20, 2-((2R,4R)-1-(4-((1-(2-Fluorophenyl)piperidin-4-yl)oxy)phenyl)-4-(trifluoromethyl)pyrrolidin-2-yl)acetic acid, TFA]
0.85 | CCOc1cccc(N2CCC(Oc3ccc(N4C[C@H](C(F)(F)F)C[C@@H]4CC(=O)O)cc3)CC2)c1 [Example 21, 2-((2R,4R)-1-(4-((1-(3-Ethoxyphenyl)piperidin-4-yl)oxy)phenyl)-4-(trifluoromethyl)pyrrolidin-2-yl)acetic acid, HCl]
1.8 | O=C(O)C[C@H]1C[C@@H](C(F)(F)F)CN1c1ccc(OC2CCN(c3ccccc3)CC2)cc1 [Example 22, 2-((2R,4R)-1-(4-((l-Phenylpiperidin-4-yl)oxy)phenyl)-4-(trifluoromethyl)pyrrolidin-2-yl)acetic acid, HCl]
3.2 | COc1cc(N2CCC(Oc3ccc(N4C[C@H](OC)C[C@@H]4CC(=O)O)cc3)CC2)c(F)cc1Cc1ccccc1 [Example 23, 2-((2R,4R)-1-(4-((1-(4-Benzyl-2-fluoro-5-methoxyphenyl)piperidin-4-yl)oxy)phenyl)-4-methoxypyrrolidin-2-yl)acetic acid, TFA]
4.1 | O=C(O)C[C@H]1C[C@@H](C(F)(F)F)CN1c1ccc(OC2CCN(c3cccc(OC(F)(F)F)c3)CC2)cc1 [Example 24, 2-((2R,4R)-1-(4-((1-(3-(Trifluoromethoxy)phenyl)piperidin-4-yl)oxy)phenyl)-4-(trifluoromethyl)pyrrolidin-2-yl)acetic acid, HCl]
0.077 | COc1ccc(F)c(N2CCC(Oc3ccc(N4C[C@H](F)C[C@@H]4CC(=O)O)cc3)C(C)C2)c1 (stereo partly drawn) [Example 25, 2-((2S,4R)-4-Fluoro-1-(4-((1-(2-fluoro-5-methoxyphenyl)-3-methylpiperidin-4-yl)oxy)phenyl)pyrrolidin-2-yl)acetic acid, TFA]
1.1 | CCc1cc(F)c(N2CCC(Oc3ccc(N4C[C@H](OC)C[C@@H]4CC(=O)O)cc3)CC2)cc1OC [Example 29, 2-((2R,4R)-1-(4-((1-(4-Ethyl-2-fluoro-5-methoxyphenyl)piperidin-4-yl)oxy)phenyl)-4-methoxypyrrolidin-2-yl)acetic acid, TFA]
0.84 | COc1cc(N2CCC(Oc3ccc(N4C[C@H](OC)C[C@@H]4CC(=O)O)cc3)CC2)c(F)cc1CC(C)C [Example 30, 2-((2R,4R)-1-(4-((1-(2-Fluoro-4-isobutyl-5-methoxyphenyl)piperidin-4-yl)oxy)phenyl)-4-methoxypyrrolidin-2-yl)acetic acid, TFA]
1.1 | CCc1c(OC)ccc(F)c1N1CCC(Oc2ccc(N3C[C@H](OC)C[C@@H]3CC(=O)O)cc2)CC1 [Example 31, 2-((2R,4R)-1-(4-((1-(2-Ethyl-6-fluoro-3-methoxyphenyl)piperidin-4-yl)oxy)phenyl)-4-methoxypyrrolidin-2-yl)acetic acid, TFA]
1.7 | COc1ccc(F)c(N2CCC(Oc3ccc(N4C[C@H](OC)C[C@@H]4CC(=O)O)cc3)CC2)c1Cc1ccccc1 [Example 32, 2-((2R,4R)-1-(4-((1-(2-Benzyl-6-fluoro-3-methoxyphenyl)piperidin-4-yl)oxy)phenyl)-4-methoxypyrrolidin-2-yl)acetic acid, TFA]
3.2 | COc1ccc(F)c(N2CCC(N(C)c3ccc(N4C[C@H](OC)C[C@@H]4CC(=O)O)cn3)CC2)c1 [Example 37, 2-((2R,4R)-1-(6-((1-(2-Fluoro-5-methoxyphenyl)piperidin-4-yl)(methyl)amino)pyridin-3-yl)-4-methoxypyrrolidin-2-yl)acetic acid, HCl]
0.23 | CCOc1ccc(F)c(N2CCC(Oc3ccc(N4C[C@H](c5ccccc5)C[C@@H]4CC(=O)O)cc3)C(C)C2)c1 (stereo partly drawn) [Example 41, 2-((2R,4S)-1-(4-(((3,4-trans)-1-(5-Ethoxy-2-fluorophenyl)-3-methylpiperidin-4-yl)oxy)phenyl)-4-phenylpyrrolidin-2-yl)acetic acid, HCl]
0.24 | CCOc1ccc(F)c(N2[C@H](C)C[C@H](Oc3ccc(N4C[C@H](C(F)(F)F)C[C@@H]4CC(=O)O)cc3)C[C@@H]2C)c1 [Example 42, 2-((2R,4R)-1-(4-(((2R,4R,6S)-1-(5-Ethoxy-2-fluorophenyl)-2,6-dimethylpiperidin-4-yl)oxy)phenyl)-4-(trifluoromethyl)pyrrolidin-2-yl)acetic acid, HCl]
1.9 | CCOc1ccc(F)c(N2CCC(Oc3ccc(N4C[C@H](n5cnnn5)C[C@@H]4CC(=O)O)cc3)CC2)c1 [Example 45, 2-((2R,4R)-1-(4-((1-(5-Ethoxy-2-fluorophenyl)piperidin-4-yl)oxy)phenyl)-4-(1H-tetrazol-1-yl)pyrrolidin-2-yl)acetic acid, HCl]
